Data: patent US20260184669A1, “LIPID COMPOUND AND COMPOSITION FOR DELIVERY OF ACTIVE SUBSTANCE” (KOREA RESEARCH INSTIUTE OF BIOSCIENCE AND BIOTECHNOLOGY, priority 2022, published 2026)

Legend:
[1] = test system: IL-1β mRNA level in HEK-293T cells
[2] = test system: CCL2 mRNA level in HEK-293T cells
female C57BL/6 mice = assay: Protein expression efficiency of fLuc mRNA-LNPs after intramuscular injection (IVIS whole-body luminescence); format: in vivo; conditions: fLuc mRNA-LNP, intramuscular injection, luminescence at injection site, mice
Outline: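 Female C57BL/6 mice (6-10 weeks, n≥4) got intramuscular fLuc mRNA-LNPs at 0.1-0.5 mg/kg mRNA. Injection-site luminescence was imaged under isoflurane at 1-72 h, 10 min after i.p. D-luciferin (200 μL, 15 mg/mL). Expression at 3 h was taken relative to MC3 or SM-102 LNPs.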

[3] = test system: IL-6 mRNA level in HEK-293T cells
[4] = Size, polydispersity index and surface charge of mRNA-LNP (Malvern Zetasizer Nano ZS90); format: physicochemical
Outline: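 Dynamic/electrophoretic light scattering of LNPs diluted in PBS to a final mRNA concentration of 1 μg/mL. Readouts were particle size, PDI and surface charge.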

[5] = mRNA encapsulation efficiency (Quant-IT RiboGreen RNA assay); format: physicochemical; conditions: mRNA encapsulation efficiency of mRNA-LNP made with the ionizable lipid; average of two measurements
Outline: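 LNP samples read with RiboGreen reagent in TE buffer with or without 2% Triton X-100 (37 °C, 10 min) to release encapsulated mRNA. Fluorescence at λex 480/λem 520 nm; EE % calculated from the two readings, averaged over two independent measurements.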

[6] = test system: CCL3 mRNA level in HEK-293T cells
[7] = Apparent pKa of mRNA-LNP by TNS binding assay; format: physicochemical; conditions: apparent pKa of mRNA-LNP made with the ionizable lipid
Method: The apparent pKa of the mRNA-LNPs prepared according to Example 27 was determined by analysis using 6-(p-toluidino)-2-naphthalenesulfonic acid sodium salt (TNS; Sigma-Aldrich, USA).
However, as the pH decreases, the proportion of positively charged ionizable lipids increases, allowing electrostatic interactions with TNS. […] When the pH of the solution increases and the ionizable lipids become neutralized, TNS can no longer engage in electrostatic interactions. Consequently, TNS loses its lipophilic character, exits the hydrophobic domain, and its fluorescence is quenched. Based on this principle, the pKa of LNPs can be measured by plotting the change in TNS fluorescence intensity in response to variations in the surrounding pH as an S-shaped curve, and calculating the […] of the inflection point. […]
Specifically, a master buffer was prepared containing 10 mM sodium phosphate, 10 mM sodium borate, 10 mM sodium citrate, and 150 mM sodium chloride (NaCl). […] After gently mixing the contents of each well, the fluorescence intensity was measured using a multiplate reader (Cary Eclipse, Agilent Technologies, USA) at an excitation wavelength of λex 330 nm and an emission wavelength of λem 435 nm.

## CCCCC/C=C\C/C=C\CCCCCCCCC(CCCCCCCC/C=C\C/C=C\CCCCC)OC(=O)CCCN(C)C [MC3, DLin-MC3-DMA, reference compound]
[1]
  IL-1β Average: 1.46
[2]
  CCL2 Average: 1.15
Female C57BL/6 mice; 1 hour after administration
  Total flux 1 hour: 1.20E+06
Female C57BL/6 mice; 3 hours after administration
  Total flux 3 hours: 1.24E+07
Female C57BL/6 mice; 6 hours after administration
  Total flux 6 hours: 1.78E+07
Female C57BL/6 mice; 48 hours after administration
  Total flux 48 hours: 8.41E+05
Female C57BL/6 mice; 72 hours after administration
  Total flux 72 hours: 3.89E+05
Female C57BL/6 mice; after administration
  Total flux: 1.03E+06
[3]
  IL-6 Average: 1.27
[4]; mRNA-LNP made with the ionizable lipid at its optimal formulation (Table 2)
  PDI: 0.174
[4]; mRNA-LNP made with the ionizable lipid at its optimal formulation (Table 2), diluted with PBS to 1 μg/mL mRNA
  size (nm) Number: 93 nm
[4]; surface charge of mRNA-LNP made with the ionizable lipid at its optimal formulation (Table 2)
  Zeta (mV): −2.65 mV
[5]
  EE (%): 95%
[6]
  CCL3 Average: 1.86
[7]
  PKa: 6.14
